Here are results for four molecules from BindingDB's records for doi:10.1021/bi501086s (The University of Texas, 2014).

The target in the experiment is T1, Acylase (Pseudomonas aeruginosa, UniProt A0A0G5TC92).
T1 sequence (A0A0G5TC92 whole entry): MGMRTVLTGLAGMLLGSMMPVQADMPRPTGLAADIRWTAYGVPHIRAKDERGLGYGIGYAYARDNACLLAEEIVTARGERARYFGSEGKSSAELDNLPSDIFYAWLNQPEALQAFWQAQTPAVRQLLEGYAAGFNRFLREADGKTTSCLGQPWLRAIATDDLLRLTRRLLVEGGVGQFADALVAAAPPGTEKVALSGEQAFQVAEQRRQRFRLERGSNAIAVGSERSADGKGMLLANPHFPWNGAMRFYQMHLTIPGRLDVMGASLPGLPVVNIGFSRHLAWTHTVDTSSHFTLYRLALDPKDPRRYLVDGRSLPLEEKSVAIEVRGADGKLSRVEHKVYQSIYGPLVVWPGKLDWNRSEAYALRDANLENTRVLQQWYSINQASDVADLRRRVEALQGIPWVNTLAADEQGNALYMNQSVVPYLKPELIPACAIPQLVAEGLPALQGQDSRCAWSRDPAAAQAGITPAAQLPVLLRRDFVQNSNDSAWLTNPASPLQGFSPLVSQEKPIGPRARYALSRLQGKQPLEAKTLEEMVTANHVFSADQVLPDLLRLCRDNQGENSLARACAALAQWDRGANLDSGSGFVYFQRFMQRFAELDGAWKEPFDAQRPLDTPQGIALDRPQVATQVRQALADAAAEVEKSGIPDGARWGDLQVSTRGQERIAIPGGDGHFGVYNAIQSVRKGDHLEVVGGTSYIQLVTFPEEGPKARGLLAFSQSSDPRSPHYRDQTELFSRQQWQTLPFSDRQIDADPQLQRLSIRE
The experiment is described as follows: PVdQ Inhibition Assay. Conditions: pH 8. On the procedure: Briefly, stock solutions of the colorimetric PvdQ substrate (4-nitrophenyl dodecanoate) were prepared in methanol and stock solutions of each n-alkylboronic acid inhibitor in DMSO. […] Each reaction was initiated by addition of purified PvdQ (10 nM) and product formation was monitored by measuring the increase in absorbance at 402 nm continuously.
Consider `CCB(O)O` [1-Ethylboronic acid (C2-B(OH)2)], for which the inhibitory constant (Ki) (as a rule, a dissociation constant, usually derived from enzyme kinetics or from competition with a known ligand) is 2 mM.

`CCCCCCB(O)O` [1-Hexylboronic acid (C6-B(OH)2)]: the affinity corresponds to a Ki of 0.0021 mM.

Take `CCCB(O)O` [1-Propylboronic acid (C3-B(OH)2)]: the inhibition constant Ki was determined as 4.7 mM.

For `CCCCB(O)O` [Borinic acid derivative], the affinity, expressed as Ki, was 0.55 mM.
